Values belong to the compound of their own block, whether it stands above or below them.
How the values were obtained:
[1] = target: T1, recombinant human SK2 (Homo sapiens, UniProt Q9NRA0); assay: SK activity assay, recombinant human SK2 (ADP-Quest; HPLC assay for SKI-II); assay type: biochemical; conditions: for Ki: recombinant human SK2, mean ± SEM of three independent experiments; for Ki / IC50: ADP-Quest (SKI-II: HPLC assay); for IC50: sphingosine 5 µM, read-out: IC50 for inhibition of SK2; for mode of inhibition of SK2: substrate competition, Lineweaver-Burk plots
T1 construct: purchased BPS Biosciences
T1 sequence (Q9NRA0 1-654): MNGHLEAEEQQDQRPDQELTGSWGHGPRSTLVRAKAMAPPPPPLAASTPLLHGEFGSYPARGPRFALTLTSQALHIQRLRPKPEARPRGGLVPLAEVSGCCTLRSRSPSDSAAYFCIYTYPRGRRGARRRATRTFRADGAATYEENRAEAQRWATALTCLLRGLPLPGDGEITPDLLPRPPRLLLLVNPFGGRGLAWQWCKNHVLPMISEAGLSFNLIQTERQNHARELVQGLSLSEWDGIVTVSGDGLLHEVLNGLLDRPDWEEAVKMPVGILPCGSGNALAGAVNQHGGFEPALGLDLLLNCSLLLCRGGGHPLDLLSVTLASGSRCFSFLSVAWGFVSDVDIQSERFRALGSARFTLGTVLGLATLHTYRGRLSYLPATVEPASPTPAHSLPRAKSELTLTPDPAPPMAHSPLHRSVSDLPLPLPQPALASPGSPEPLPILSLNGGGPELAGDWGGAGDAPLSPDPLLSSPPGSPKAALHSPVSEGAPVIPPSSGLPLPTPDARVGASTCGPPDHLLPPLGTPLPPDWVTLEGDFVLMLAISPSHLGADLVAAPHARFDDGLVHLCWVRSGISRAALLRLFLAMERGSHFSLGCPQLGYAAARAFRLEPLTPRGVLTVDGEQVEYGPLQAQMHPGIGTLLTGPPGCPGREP
Procedure: (§3) The enzymatic activities of recombinant human SK1 or SK2 (purity ≥74% by coomassie staining for each isozyme, BPS Biosciences) were measured using the ADP-Quest kinase assay kit (DiscoveRX Corporation, Fremont, CA) as previously described [34]. […] The reactions were maintained in initial velocity conditions (<5% of the substrate consumed), and data was fitted to the Michaelis–Menten equation by nonlinear regression (Prism 5 for Windows, GraphPad Software). […] For substrate competition analyses, a series of sphingosine concentrations were used and Lineweaver–Burk plots were constructed to define the mode of inhibition.

[2] = system: SK2 mRNA; assay: SK2 mRNA expression by quantitative PCR in A498 cells; assay type: cell-based; conditions: inhibitor at its IC50, 48 hr
Procedure: (§1) To assess proliferation, cells were treated with the SK inhibitors for the indicated times, and cell numbers were quantified using the sulforhodamine assay. Expression levels of SK1 and SK2 were measured by quantitative PCR using GAPDH for normalization, as previously described. […] The cell pellets were subjected to sphingolipid profiling by HPLC-MS by the Lipidomics Core Facility at MUSC as described elsewhere. […] For migration assays, 50,000 cells were placed in each cell culture insert (24-well format, 8 µm pore size, BD Biosciences) for 1 hr at room temperature. For invasion assays, matrigel pre-coated inserts were used as previously described. In both cases, inserts were placed into 24-well plates with 0.3 ml of 10%-serum-containing medium having the same concentration of the inhibitor as the insert. Cells were cultured for 4 hr for migration or 24 hr for invasion assays, and the number of cells that migrated to the underside of the inserts was determined by crystal violet staining as previously described.
(§2) Figure 5 Biochemical and phenotypic effects of SK inhibitors. A ) Cytotoxicity - After treatment with varying concentrations of the SK inhibitors for the indicated time periods, cell numbers were quantified. […] B ) SK expression - After SK inhibitor treatment, mRNAs for SK1 (open bars) and SK2 (filled bars) compared to the vehicle controls (DMSO-treated cells) were calculated. C ) Sphingolipid profiling – After SK inhibitor treatment, cells were harvested and sphingolipids were analyzed by mass spectrometric. The bars represent the ratio of the amount of the indicated lipids in drug treated cells compared with control cells. Abbreviations are: C26-ceramide (C26-Cer), C24-ceramide (C24-Cer), C20-ceramide (C20-Cer), C18-ceramide (C18-Cer), C16-ceramide (C16-Cer), sphingosine (Sph) and dihydrosphingosine (dhSph). D ) Cell cycle distribution – After SK inhibitor treatment, cells were harvested and analyzed by flow cytometry. The bars indicate the percentage of cells in each of the indicated cell cycle phases. E ) Cell migration and invasion – After SK inhibitor treatment, cells were harvested and migration, through unmodified filters (open bars) and invasion through Matrigel-coated filters (filled bars), were analyzed. The bars indicate the percentage of cells that had migrated compared to control cells. Data are the mean ± SEM of three independent experiments. *p<0.05, **p<0.01, ***p<0.001 versus control.

[3] = system: STAT3, AKT, ERK, p21, p53, FAK, Beclin1, LC3 in A498 cells; assay: Western blot of signaling proteins in A498 cells; assay type: cell-based; conditions: inhibitor at its IC50, 48 hours
Procedure: Following treatment with the SK inhibitors, cells were washed, harvested and lysed, and supernatants were prepared and protein concentrations were determined as previously described. Immunoblotting was carried out with the following primary antibodies (Cell Signaling): AKT, pAKT, ERK1/2, pERK1/2, STAT3, pSTAT3, p21, p53, FAK, pFAK(Y397), Beclin1, LC3, β-actin; and corresponding HRP-conjugated anti-rabbit or anti-mouse secondary antibodies, and immunocomplexes were visualized by the chemiluminescence. Protein expression was quantified by densitometric scanning of the BIOMAX XAR films after normalization to β-actin using the program NIH ImageJ.
Figure 6 Effects of SK inhibitors on signaling proteins. […] Figures are representative blots of at least three independent experiments. B ) Immunoblotting was conducted with the indicated antibodies, and densitometric quantification was done using Image J. Relative expression is represented as the ratio to control after normalization to β-actin.

[4] = system: SK1 mRNA; assay: SK1 mRNA expression by quantitative PCR in A498 cells; assay type: cell-based; conditions: inhibitor at its IC50, 48 hr
Procedure: as §1, §2

[5] = system: A498 kidney adenocarcinoma cells; assay: Cell cycle distribution by flow cytometry; assay type: cell-based; conditions: inhibitor at its IC50, 48 hr
Procedure: as §2

[6] = system: A498 kidney adenocarcinoma cells; assay: Sphingolipid profiling by HPLC-MS in A498 cells; assay type: cell-based; conditions: inhibitor at its IC50, 48 hr
Procedure: as §1, §2

[7] = target: T2, recombinant human SK1 (Homo sapiens, UniProt Q9NYA1); assay: SK activity assay, recombinant human SK1 (ADP-Quest; HPLC assay for SKI-II); assay type: biochemical; conditions: for IC50: sphingosine 10 µM, read-out: IC50 for inhibition of SK1; for IC50 / Ki: ADP-Quest (SKI-II: HPLC assay); for Ki: recombinant human SK1, mean ± SEM of three independent experiments; for mode of inhibition of SK1: substrate competition, Lineweaver-Burk plots
T2 construct: purchased BPS Biosciences
Procedure: as §3

[8] = system: A498 kidney adenocarcinoma cells; assay: Serum-induced migration and invasion (Matrigel) assays; assay type: cell-based; conditions: inhibitor at its IC50, 48 hr pretreatment, compared with SK1-selective CB5468139
Procedure: (§4) To assess proliferation, cells were treated with the SK inhibitors for the indicated times, and cell numbers were quantified using the sulforhodamine assay [38]. […] For migration assays, 50,000 cells were placed in each cell culture insert (24-well format, 8 µm pore size, BD Biosciences) for 1 hr at room temperature. For invasion assays, matrigel pre-coated inserts were used as previously described [17]. In both cases, inserts were placed into 24-well plates with 0.3 ml of 10%-serum-containing medium having the same concentration of the inhibitor as the insert. Cells were cultured for 4 hr for migration or 24 hr for invasion assays, and the number of cells that migrated to the underside of the inserts was determined by crystal violet staining as previously described [17].
(§5) A ) Cytotoxicity - After treatment with varying concentrations of the SK inhibitors for the indicated time periods, cell numbers were quantified. […] E ) Cell migration and invasion – After SK inhibitor treatment, cells were harvested and migration, through unmodified filters (open bars) and invasion through Matrigel-coated filters (filled bars), were analyzed. […] Data are the mean ± SEM of three independent experiments. *p<0.05, **p<0.01, ***p<0.001 versus control.

[9] = system: A498 kidney adenocarcinoma cells; assay: Proliferation / cytotoxicity, sulforhodamine assay; assay type: cell-based; conditions: Homo sapiens, A498, 48 h, read-out: IC50, concentration that reduces cell number by 50%
Procedure: as §4, §5

[10] = system: panel of 65 protein kinases; assay: Kinase profiling, KinaseSeeker assay; conditions: 2 µM compound; 65 protein kinases tested
Procedure: The inhibitory effects of CB5468139 (2 µM) on the indicated protein kinases were tested using KinaseSeeker assay technology (Luceome Biotech. LLC).

[11] = 100 µM ATP, sphingosine 1.25 to 20 µM, initial velocity conditions

T2 sequence (Q9NYA1 whole entry): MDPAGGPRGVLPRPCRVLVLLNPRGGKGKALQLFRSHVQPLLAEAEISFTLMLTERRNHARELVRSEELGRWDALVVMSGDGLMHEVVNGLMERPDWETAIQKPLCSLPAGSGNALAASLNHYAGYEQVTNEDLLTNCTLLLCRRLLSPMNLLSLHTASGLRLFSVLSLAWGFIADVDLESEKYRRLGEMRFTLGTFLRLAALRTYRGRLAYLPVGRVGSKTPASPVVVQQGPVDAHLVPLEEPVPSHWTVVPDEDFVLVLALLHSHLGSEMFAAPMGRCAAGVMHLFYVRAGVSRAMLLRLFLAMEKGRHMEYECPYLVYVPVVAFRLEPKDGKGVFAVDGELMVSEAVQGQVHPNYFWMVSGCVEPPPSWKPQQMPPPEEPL

Ki [1]: 9.3 µM
IC50 [1]: ~40 µM
mode of inhibition of SK2 [1]: sphingosine-competitive inhibitor
IC50 [7]: > 100 µM
Compound: O=C(NCc1ccncc1)C12CC3CC(C1)CC(c1ccc(Cl)cc1)(C3)C2 [ABC294640]
SK2 mRNA level compared to vehicle control [2]: strongly increased
ERK2 expression [3]: decreases of ERK2
STAT3 expression and activation (pSTAT3) [3]: largest decrease
expression of autophagy markers beclin1 and LC3 [3]: most pronounced increases
pAKT level [3]: decreased dramatically
pFAK(Y397) / FAK [3]: strongly down-regulated
protein levels of p53 and p21 [3]: decreased the protein levels of p53 and p21
SK1 mRNA level compared to vehicle control [4]: approximately 5 fold
effect on cell cycle distribution [5]: distinct G1 arrest with significant decreases in both S and G2/M phases
decrease of intracellular S1P compared to control [6]: over 90%
levels of sphingosine [6]: dramatically decreased
total ceramides relative to control cells [6]: 2 times the level of control cells
serum-induced migration and invasion [8]: more strongly attenuated
IC50 [9]: 40 µM

Ki [1]: 4.2 ± 0.6 µM
IC50 [1]: ~10 µM
mode of inhibition of SK2 [1]: sphingosine-competitive inhibitor
Ki [7]: 3.1 ± 0.8 µM
IC50 [7]: ~10 µM
mode of inhibition of SK1 [7]: sphingosine-competitive inhibitor
Compound: O=C(NCCc1ccc(O)c(O)c1)C12CC3CC(C1)CC(c1ccc(Cl)cc1)(C3)C2 [ABC294735]
SK2 mRNA level compared to vehicle control [2]: Neither ABC294735 nor CB5468139 substantially altered the expression
SK1 mRNA level compared to vehicle control [4]: Neither ABC294735 nor CB5468139 substantially altered the expression
effect on cell cycle distribution [5]: slightly increase the S phase percentage
IC50 [9]: 35 µM

protein kinases with ≥50% inhibition [10]: 12 of 65
IC50 [1]: > 100 µM
Ki [7]: 0.28 ± 0.15 µM
IC50 [7]: ~2 µM
mode of inhibition of SK1 [7]: ATP mimetic
Compound: CC(=O)N(C1=C(Cl)C(=O)c2ccccc2C1=O)C1CCCCC1 [CB5468139]
SK2 mRNA level compared to vehicle control [2]: Neither ABC294735 nor CB5468139 substantially altered the expression
pFAK(Y397) / FAK [3]: strongly down-regulated
protein levels of p53 and p21 [3]: reduced the expression of p53, but not p21
SK1 mRNA level compared to vehicle control [4]: Neither ABC294735 nor CB5468139 substantially altered the expression
effect on cell cycle distribution [5]: slightly increase the S phase percentage
decrease of intracellular S1P compared to control [6]: less than 20%
increase of total ceramide levels [6]: 30–60%
IC50 [9]: 10 µM

Continued, compound first:

Compound: CCCCCCCCCCCCC/C=C/[C@@H](O)[C@H](CO)N(C)C [DMS, N,N-dimethyl-D-erythro-sphingosine, reference compound]
Ki [1]: 14 µM
IC50 [1]: ~20 µM
mode of inhibition of SK2 [1]: competitive inhibition with respect to sphingosine
SK2 mRNA level compared to vehicle control [2]: only slightly increased
pFAK(Y397) / FAK [3]: not altered
protein levels of p53 and p21 [3]: essentially no affect
SK1 mRNA level compared to vehicle control [4]: tripled
cells driven into apoptosis [5]: approximately 20%
effect on cell cycle distribution [5]: did not impact the cell cycle
effect on levels of ceramides [6]: little impact on the levels of most ceramides
mode of inhibition of SK1 [7]: competitive inhibition with respect to sphingosine
IC50 [9]: 5 µM

Compound: Oc1ccc(Nc2nc(-c3ccc(Cl)cc3)cs2)cc1 [SKI-II, 2-(p-hydroxyanilino)-4-(p-chlorophenyl) thiazole, reference compound]
Ki [1]: 7.9 ± 0.6 µM
IC50 [1]: 20 µM
SK2 mRNA level compared to vehicle control [2]: ~4 fold
ERK2 expression [3]: decreases of ERK2
pFAK(Y397) / FAK [3]: strongly down-regulated
protein levels of p53 and p21 [3]: decreased the protein levels of p53 and p21
SK1 mRNA level compared to vehicle control [4]: ~4 fold
effect on cell cycle distribution [5]: arrested cells in S phase with a concomitant decrease in the G2/M phase
decrease of intracellular S1P compared to control [6]: over 90%
increase of total ceramide levels [6]: 30–60%
levels of sphingosine [6]: dramatically decreased
serum-induced migration and invasion [8]: more strongly attenuated
IC50 [9]: 20 µM

Compound: CCCCCCCCCCCCC/C=C/[C@@H](O)[C@@H](N)CO [sphingosine]
Km [1, 11]: 5 ± 0.36 µM
Km [7, 11]: 10 ± 0.45 µM

Compound: diacylglycerol [DAG]
IC50 [1]: > 100 µM
IC50 [7]: > 100 µM
